Reference: US20050004018A1, “Use of antitumoral compound in cancer therapy” (priority 2001, published 2005)
Read-outs that look alike come from different tables or passages of the source.

What was measured:
human tumor xenografts = conditions: broad range of in vivo tumor models, including human tumor xenografts in nude mice; cited from earlier work
dogs = conditions: cited from earlier work
cancer patients [1] = conditions: cited from earlier work
canine progenitor cells = conditions: cited from earlier work
cancer patients [2] = conditions: cited from earlier work; remark: listed apart in the source
rats = conditions: single or fractionated dose, intravenous; cited from earlier work
cancer patients [3] = conditions: cited from earlier work; remark: listed apart in the source
cancer patients [4] = conditions: cited from earlier work; remark: listed apart in the source
[5] = system: soft tissue sarcoma cell lines; conditions: several soft tissue sarcoma cell lines; cited from earlier work
cancer patients [6] = experiment: phase II programme, 3 hour every 3 weeks schedule; type: in vivo, human
Experimental: Two schedules (24 hour every 3 weeks and 3 hour every 3 weeks) reached the phase II programme. The phase II programme confirmed the activity against soft tissue sarcoma and ovarian cancer. However, the recommended starting dose for the 3 hour schedule had to be reduced because of serious toxicity. The recommended dose for the 24 hour schedule was 1500 μg /m^2 and the recommended dose for the 3 hour schedule is at present 1300 μg/m^2.
Serious increases of transaminases (grade 3-4) were more frequent with the 3 hour schedule than with the 24 hour schedule. […] This toxicity has improved with the amendment that reduces the starting dose to 1300 (grade 3 and 4 ALT in 38% and 8.5% of patients), although it would be desirable to reduce it further. Cholestasis is less severe and less frequent observing grade 1, 2 and 3 alkaline phosphatase in 50.4%, 6.5% and 1.7% (leading to an overall 58.6% that compares similarly with 57.7% over 24 hours) of patients. […] An infrequent but important toxicity was the renal toxicity, represented by creatinine abnormalities, that is also higher than in the 24 hour schedule. […]

[7] = % of treatment courses at the RD
[8] = 1 hr infusion days 1-5 every 3 weeks
[9] = 3 hour infusion, worst grade per patient
[10] = Per patient (3 h), number (percent)
[11] = starting dose reduced to 1300, % of patients

For ecteinascidin 743 [ET-743], the “antitumor activity in vivo” value (human tumor xenografts) is given as “Potent antitumor activity”, the “further toxicity in dogs” value (dogs; following administration) is given as “vomiting and diarrhoea” and the toxicity (dogs; single or fractionated dose, intravenous, dogs) is given as “reversible hematological and hepatic toxicity”. The MTD (cancer patients [1]; 3-hr infusion every 3 weeks) was 1800 μg/M^2, the “RD for Phase II studies” value (cancer patients [1]; 3-hr infusion every 3 weeks) was 1650 μg/M^2 and the “increases of bilirubin G2 or greater” value (cancer patients [1]; [7]) was 9%. For the same substance, the “sensitivity of progenitor cells” value (canine progenitor cells) was “equal sensitivity of erythropoid and myeloid cells”, the “DLT (dose limiting toxicity)” value (cancer patients [2]; 24hr infusion every 3 weeks) was “hematotoxicity” and the “MTD (maximum tolerated dose)” value (cancer patients [2]; 24hr infusion every 3 weeks) was 1800 μg/m^2. The “RD (recommended dose)” value (cancer patients [2]; 24hr infusion every 3 weeks) was 1500 μg/m^2, the “Grade 2 or greater hyperbilirubinemia” value (cancer patients [2]; [7]) was 30% and the “Grade 3 or 4 transaminases, cycles” value (cancer patients [2]; at the RD, % of cycles) was 38%. The “Grade 3 or 4 transaminases, patients” value (cancer patients [2]; at the RD, % of patients) was 68%, the toxicity (rats) was “reversible hematological and hepatic toxicity” and the MTD (cancer patients [3]; [8]) was 380 μg/m^2/day. The RD (cancer patients [3]; [8]) was 325 μg/m^2/day, the cycles delayed (cancer patients [3]; at 325 μg/m^2/day (RD)) was 59% and the “median day of recovery to grade 1 for neutropenia” value (cancer patients [3]; at 325 μg/m^2/day (RD)) was 28 days. The “patients who developed DLT” value (cancer patients [3]; at 380 μg/m^2/day (MTD)) was 3 patients, the “Reversible grade 3 transaminases, cycles” value (cancer patients [3]; at the recommended dose, % of cycles) was 14% and the “Reversible grade 3 transaminases, patients” value (cancer patients [3]; at the recommended dose, % of patients) was 31%. For the same substance, the MTD (cancer patients [4]; 72 hr infusion every 3 weeks) was 1200 μg/M^2, the RD (cancer patients [4]; 72 hr infusion every 3 weeks) was 1050 μg/M^2 and the “reversible grade 4 transaminases elevation” value (cancer patients [4]; at 1200 μg/M^2 (MTD)) was 2 out of 9. For the same substance, the “grade 3 hypertransaminasemia” value (cancer patients [4]; at the RD (1050 μg/M^2), % of patients) was 50%, the “grade 4 hypertransaminasemia” value (cancer patients [4]; at the RD (1050 μg/M^2)) was “there was not any grade 4 hypertransaminasemia” and the IC50 [5] was less than 1 pM. For the same substance, the “Alk Phosph, NCI-CTC Grade 1” value (cancer patients [6]; [9]) was 115 (50.4) Number of patients (%), the “Alk Phosph, NCI-CTC Grade 2” value (cancer patients [6]; [9]) was 15 (6.5) Number of patients (%) and the “Alk Phosph, NCI-CTC Grade 3” value (cancer patients [6]; [9]) was 4 (1.7) Number of patients (%). For the same substance, the “Alk Phosph, NCI-CTC Grade 4” value (cancer patients [6]; [9]) was 2 (0.8) Number of patients (%), the “Bilirubin, NCI-CTC Grade 1” value (cancer patients [6]; [9]) was 59 (25.8) Number of patients (%) and the “Bilirubin, NCI-CTC Grade 2” value (cancer patients [6]; [9]) was 38 (16.6) Number of patients (%). For the same substance, the “Bilirubin, NCI-CTC Grade 3” value (cancer patients [6]; [9]) was 6 (2.6) Number of patients (%), the “Bilirubin, NCI-CTC Grade 4” value (cancer patients [6]; [9]) was 0 ^ Number of patients (%) and the “Hemoglobin, NCI-CTC Grade 0-1” value (cancer patients [6]; [9]) was 132 (55) Number of patients (%). The “Hemoglobin, NCI-CTC Grade 2” value (cancer patients [6]; [9]) was 80 (33.4) Number of patients (%), the “Hemoglobin, NCI-CTC Grade 3” value (cancer patients [6]; [9]) was 23 (9.6) Number of patients (%) and the “Hemoglobin, NCI-CTC Grade 4” value (cancer patients [6]; [9]) was 4 (1.6) Number of patients (%). The “Neutrophils, NCI-CTC Grade 0-1” value (cancer patients [6]; [9]) was 59 (24.5) Number of patients (%), the “Neutrophils, NCI-CTC Grade 2” value (cancer patients [6]; [9]) was 42 (17.4) Number of patients (%) and the “Neutrophils, NCI-CTC Grade 3” value (cancer patients [6]; [9]) was 57 (23.6) Number of patients (%). The “Neutrophils, NCI-CTC Grade 4” value (cancer patients [6]; [9]) was 85 (35.2) Number of patients (%), the “Platelets, NCI-CTC Grade 0-1” value (cancer patients [6]; [9]) was 170 (69.1) Number of patients (%) and the “Platelets, NCI-CTC Grade 2” value (cancer patients [6]; [9]) was 26 (10.6) Number of patients (%). The “Platelets, NCI-CTC Grade 3” value (cancer patients [6]; [9]) was 31 (12.6) Number of patients (%), the “Platelets, NCI-CTC Grade 4” value (cancer patients [6]; [9]) was 14 (5.6) Number of patients (%) and the “SGOT/AST, NCI-CTC Grade 1” value (cancer patients [6]; [9]) was 17 (7.2) Number of patients (%). The “SGOT/AST, NCI-CTC Grade 2” value (cancer patients [6]; [9]) was 29 (12.3) Number of patients (%), the “SGOT/AST, NCI-CTC Grade 3” value (cancer patients [6]; [9]) was 117 (49.7) Number of patients (%) and the “SGOT/AST, NCI-CTC Grade 4” value (cancer patients [6]; [9]) was 58 (24.6) Number of patients (%). The “SGPT/ALT, NCI-CTC Grade 1” value (cancer patients [6]; [9]) was 13 (5.5) Number of patients (%), the “SGPT/ALT, NCI-CTC Grade 2” value (cancer patients [6]; [9]) was 19 (8.1) Number of patients (%) and the “SGPT/ALT, NCI-CTC Grade 3” value (cancer patients [6]; [9]) was 107 (45.7) Number of patients (%). The “SGPT/ALT, NCI-CTC Grade 4” value (cancer patients [6]; [9]) was 87 (37.1) Number of patients (%), the “Increased transaminases (grade 3-4), cycles” value (cancer patients [6]; 3 hour schedule, % of cycles) was 58.3% and the “Grades 1-3 of bilirubin” value (cancer patients [6]; 3 hour schedule, % of patients) was 45%. The “Increased transaminases (grade 3-4), patients” value (cancer patients [6]; 3 hour schedule, % of patients) was 83.4%, the alkaline phosphatase overall (cancer patients [6]; 3 hour schedule, % of patients) was 58.6% and the “grade 1 alkaline phosphatase” value (cancer patients [6]; 3 hour schedule, % of patients) was 50.4%. The “grade 2 alkaline phosphatase” value (cancer patients [6]; 3 hour schedule, % of patients) was 6.5%, the “grade 3 alkaline phosphatase” value (cancer patients [6]; 3 hour schedule, % of patients) was 1.7% and the recommended dose (cancer patients [6]; 3 hour schedule, at present (reduced)) was 1300 μg/m^2. The “Grade 3-4 ALT” value (cancer patients [6]; 3 h schedule every three weeks) was 82.8%, the “Grade 3-4 Bilirubin” value (cancer patients [6]; 3 h schedule every three weeks) was 2.6% and the “Grade 3-4 Creatinine” value (cancer patients [6]; 3 h schedule every three weeks) was 2.3%. The “Grade 3-4 Creatinine Kinase” value (cancer patients [6]; 3 h schedule every three weeks) was 1.5%, the “Grade 3-4 Hemoglobin” value (cancer patients [6]; 3 h schedule every three weeks) was 11.3% and the “Grade 3-4 Neutrophils” value (cancer patients [6]; 3 h schedule every three weeks) was 58.3%. For the same substance, the “Grade 3-4 Platelets” value (cancer patients [6]; 3 h schedule every three weeks) was 18.7%, the “Creatinine abnormalities, NCI-CTC Grade 1” value (cancer patients [6]; [10]) was 44 (20.1) and the “Creatinine abnormalities, NCI-CTC Grade 2” value (cancer patients [6]; [10]) was 10 (4.6). For the same substance, the “Creatinine abnormalities, NCI-CTC Grade 3” value (cancer patients [6]; [10]) was 5 (2.3), the “Creatinine abnormalities, NCI-CTC Grade 4” value (cancer patients [6]; [10]) was 0 ^ and the “grade 3 ALT” value (cancer patients [6]; [11]) was 38%. For the same substance, the “grade 4 ALT” value (cancer patients [6]; [11]) was 8.5%.
